Experimental data as given in patent publication US8192962B2, “Processes for detecting toxic substances” (Daikin Industries, Ltd., priority 2001, dated 2012).

Test system: Genes belonging to other category
Experiment: DNA chip mRNA expression in yeast, genes belonging to other category (Table 9)
Type: cell-based, Saccharomyces cerevisiae S288C
Summary of the method: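 Chemical exposure: 2 h, log-phase S. cerevisiae S288C, YPD, 25° C., dose set to inhibit growth without death. Profiling: mRNA labeled by reverse transcription with Cy3- or Cy5-dUTP, hybridized to whole-genome array. Output: fluorescence ratio against untreated culture.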

N#Cc1c(Cl)c(Cl)c(Cl)c(C#N)c1Cl [(9), 2,4,5,6-tetrachloro-1,3-benzenedicarbonitrile]
The level of expressed mRNA in the presence of chemical substance/The level of expressed mRNA in the absence of chemical substance (yeast gene YMR297W): 1.9
The level of expressed mRNA in the presence of chemical substance/The level of expressed mRNA in the absence of chemical substance (yeast gene YMR314W): 5.9
The level of expressed mRNA in the presence of chemical substance/The level of expressed mRNA in the absence of chemical substance (yeast gene YNL006W): 4.0
The level of expressed mRNA in the presence of chemical substance/The level of expressed mRNA in the absence of chemical substance (yeast gene YNL007C): 3.0
The level of expressed mRNA in the presence of chemical substance/The level of expressed mRNA in the absence of chemical substance (yeast gene YNL036W): 6.6
The level of expressed mRNA in the presence of chemical substance/The level of expressed mRNA in the absence of chemical substance (yeast gene YNL039W): 2.1
The level of expressed mRNA in the presence of chemical substance/The level of expressed mRNA in the absence of chemical substance (yeast gene YNL093W): 1.7
The level of expressed mRNA in the presence of chemical substance/The level of expressed mRNA in the absence of chemical substance (yeast gene YNL147W): 2.1
The level of expressed mRNA in the presence of chemical substance/The level of expressed mRNA in the absence of chemical substance (yeast gene YNL214W): 1.5
The level of expressed mRNA in the presence of chemical substance/The level of expressed mRNA in the absence of chemical substance (yeast gene YNL333W): 2.3
The level of expressed mRNA in the presence of chemical substance/The level of expressed mRNA in the absence of chemical substance (yeast gene YNR010W): 1.7
The level of expressed mRNA in the presence of chemical substance/The level of expressed mRNA in the absence of chemical substance (yeast gene YNR037C): 1.3
The level of expressed mRNA in the presence of chemical substance/The level of expressed mRNA in the absence of chemical substance (yeast gene YNR069C): 5.5
The level of expressed mRNA in the presence of chemical substance/The level of expressed mRNA in the absence of chemical substance (yeast gene YOL013C): 0.8
The level of expressed mRNA in the presence of chemical substance/The level of expressed mRNA in the absence of chemical substance (yeast gene YOL164W): 4.9
The level of expressed mRNA in the presence of chemical substance/The level of expressed mRNA in the absence of chemical substance (yeast gene YOR036W): 1.2
The level of expressed mRNA in the presence of chemical substance/The level of expressed mRNA in the absence of chemical substance (yeast gene YOR058C): 6.4
The level of expressed mRNA in the presence of chemical substance/The level of expressed mRNA in the absence of chemical substance (yeast gene YOR069W): 1.9
The level of expressed mRNA in the presence of chemical substance/The level of expressed mRNA in the absence of chemical substance (yeast gene YOR117W): 3.5
The level of expressed mRNA in the presence of chemical substance/The level of expressed mRNA in the absence of chemical substance (yeast gene YOR124C): 2.0
The level of expressed mRNA in the presence of chemical substance/The level of expressed mRNA in the absence of chemical substance (yeast gene YOR132W): 2.8
The level of expressed mRNA in the presence of chemical substance/The level of expressed mRNA in the absence of chemical substance (yeast gene YOR134W): 1.5
The level of expressed mRNA in the presence of chemical substance/The level of expressed mRNA in the absence of chemical substance (yeast gene YOR149C): 0.4
The level of expressed mRNA in the presence of chemical substance/The level of expressed mRNA in the absence of chemical substance (yeast gene YOR157C): 5.7
The level of expressed mRNA in the presence of chemical substance/The level of expressed mRNA in the absence of chemical substance (yeast gene YOR165W): 0.8
The level of expressed mRNA in the presence of chemical substance/The level of expressed mRNA in the absence of chemical substance (yeast gene YOR181W): 0.6
The level of expressed mRNA in the presence of chemical substance/The level of expressed mRNA in the absence of chemical substance (yeast gene YOR185C): 1.9
The level of expressed mRNA in the presence of chemical substance/The level of expressed mRNA in the absence of chemical substance (yeast gene YOR198C): 2.4
The level of expressed mRNA in the presence of chemical substance/The level of expressed mRNA in the absence of chemical substance (yeast gene YOR256C): 2.7
The level of expressed mRNA in the presence of chemical substance/The level of expressed mRNA in the absence of chemical substance (yeast gene YOR259C): 2.7
The level of expressed mRNA in the presence of chemical substance/The level of expressed mRNA in the absence of chemical substance (yeast gene YOR261C): 5.5
The level of expressed mRNA in the presence of chemical substance/The level of expressed mRNA in the absence of chemical substance (yeast gene YOR285W): 4.0
The level of expressed mRNA in the presence of chemical substance/The level of expressed mRNA in the absence of chemical substance (yeast gene YOR288C): 0.9
The level of expressed mRNA in the presence of chemical substance/The level of expressed mRNA in the absence of chemical substance (yeast gene YOR327C): 1.4
The level of expressed mRNA in the presence of chemical substance/The level of expressed mRNA in the absence of chemical substance (yeast gene YOR355W): 0.1
The level of expressed mRNA in the presence of chemical substance/The level of expressed mRNA in the absence of chemical substance (yeast gene YOR362C): 4.3
The level of expressed mRNA in the presence of chemical substance/The level of expressed mRNA in the absence of chemical substance (yeast gene YOR383C): 1.2
The level of expressed mRNA in the presence of chemical substance/The level of expressed mRNA in the absence of chemical substance (yeast gene YPL001W): 0.7
The level of expressed mRNA in the presence of chemical substance/The level of expressed mRNA in the absence of chemical substance (yeast gene YPL018W): 1.4
The level of expressed mRNA in the presence of chemical substance/The level of expressed mRNA in the absence of chemical substance (yeast gene YPL020C): 2.3
The level of expressed mRNA in the presence of chemical substance/The level of expressed mRNA in the absence of chemical substance (yeast gene YPL089C): 0.4
The level of expressed mRNA in the presence of chemical substance/The level of expressed mRNA in the absence of chemical substance (yeast gene YPL109C): 1.2
The level of expressed mRNA in the presence of chemical substance/The level of expressed mRNA in the absence of chemical substance (yeast gene YPL149W): 5.6
The level of expressed mRNA in the presence of chemical substance/The level of expressed mRNA in the absence of chemical substance (yeast gene YPL154C): 2.8
The level of expressed mRNA in the presence of chemical substance/The level of expressed mRNA in the absence of chemical substance (yeast gene YPR066W): 2.3
The level of expressed mRNA in the presence of chemical substance/The level of expressed mRNA in the absence of chemical substance (yeast gene YPR081C): 4.2
The level of expressed mRNA in the presence of chemical substance/The level of expressed mRNA in the absence of chemical substance (yeast gene YPR086W): 3.0
The level of expressed mRNA in the presence of chemical substance/The level of expressed mRNA in the absence of chemical substance (yeast gene YPR103W): 5.5
The level of expressed mRNA in the presence of chemical substance/The level of expressed mRNA in the absence of chemical substance (yeast gene YPR107C): 2.4
The level of expressed mRNA in the presence of chemical substance/The level of expressed mRNA in the absence of chemical substance (yeast gene YPR108W): 3.7
